Patent US20240197744A1, “TREATING SEX STEROID DEPENDENT CANCER WITH BMX INHIBITORS” (The Cleveland Clinic Foundation, priority 2021, published 2024)

What was measured:
[1] = system: VCaP xenografts; experiment: VCaP xenograft in eugonadal mice; type: in vivo; conditions: VCaP xenograft tumors
Method: (§1) Total RNA was extracted with GenElute Mammalian Total RNA miniprep kit (Sigma-Aldrich), and 1 μg RNA was reverse-transcribed to complementary DNA (cDNA) with the iScript cDNA Synthesis Kit (Bio-Rad). An ABI 7500 Real-Time PCR instrument (Applied Biosystems) was used to perform quantitative PCR (qPCR) analysis, using iTaq Fast SYBR Green Supermix with ROX (Bio-Rad) in 96-well plates at a final reaction volume of 10 μl. The qPCR analysis was carried out in triplicate with the following primer sets:
(§2) All mouse studies were performed under a protocol approved by the Institutional Animal Care and Use Committee of the Cleveland Clinic Lerner Research Institute. […]
(§3) To evaluate whether zanubrutinib suppresses tumor growth, 6 million C4-2 or 10 million VCaP cells (100 μl in 50% Matrigel and 50% growth media) were subcutaneously injected into mice. […] Tumor volume and progression-free survival were determined as described above. […] The number of mice in each group was determined by those that survived surgical procedures and had reached the 200 mm^3 tumor volume required to initiate treatment. Tumor diameters were measured by digital calipers three times per week and fresh frozen upon mouse sacrifice.
(§4) Androgens in xenografts were assessed by liquid chromatography tandem mass spectrometry as reported previously with slight modifications (Li et al., 2021; Zhu et al., 2018). […]

[2] = system: C4-2 xenografts; experiment: C4-2 xenograft in eugonadal mice; type: in vivo; conditions: C4-2 xenograft tumors
Method: as §1, §2, §3, §4

C=CC(=O)N1CCC([C@@H]2CCNc3c(C(N)=O)c(-c4ccc(Oc5ccccc5)cc4)nn32)CC1 [zanubrutinib, Zanubrutinib]
no significant effect: tumor testosterone by mass spectrometry [1] | AR target gene expression ([1]; qPCR) | tumor testosterone by mass spectrometry [2] | AR target gene expression ([2]; qPCR)
